{
  "source": "ChEMBL document CHEMBL3758156",
  "about": "“The importance of triazole scaffold in the development of anticonvulsant agents” (Eur J Med Chem, 2016)",
  "key": {"Mus musculus [1]": {"tested_on": "Mus musculus", "test": "Anticonvulsant activity in mouse assessed as protection against maximal electroshock-induced seizures at 50 and 100 mg/kg by MES test", "assay_type": "functional"}, "[2]": {"test": "Protective index, ratio of TD50 for neurotoxicity in ip dosed Swiss mouse to ED50 for anticonvulsant activity in ip dosed Swiss mouse", "assay_type": "toxicity, organism-based", "details": "in vivo, read-out: Ratio TD50/ED50"}, "Mus musculus [3]": {"tested_on": "Mus musculus", "test": "Anticonvulsant activity in lithium-pilocarpine NMRI mouse model assessed as inhibition of pilocarpine-induced seizures at 10 mg/kg, ip administered 30 mins prior to pilocarpine injection measured for 60 mins", "assay_type": "functional"}, "Mus musculus [4]": {"tested_on": "Mus musculus", "test": "Anticonvulsant activity in po dosed CD1 mouse assessed as protection against strychnine-induced seizures administered 0.5 hr prior to strychnine challenge", "assay_type": "functional"}, "Mus musculus [5]": {"tested_on": "Mus musculus", "test": "Anticonvulsant activity in ip dosed Swiss mouse assessed as protection against PTZ-induced seizures administered 30 mins prior to PTZ challenge", "assay_type": "functional"}, "Mus musculus [6]": {"tested_on": "Mus musculus", "test": "Anticonvulsant activity in ip dosed NMRI mouse assessed as protection against PTZ-induced seizures administered 30 mins prior to PTZ injection measured after 30 mins", "assay_type": "functional"}, "Mus musculus [7]": {"tested_on": "Mus musculus", "test": "Anticonvulsant activity in ip dosed Kunming mouse assessed as protection against maximal electroshock-induced seizures after 30 mins by MES test", "assay_type": "functional", "details": "0.5 h"}, "[8]": {"test": "Protective index, ratio of TD50 for neurotoxicity in ip dosed Kunming mouse to ED50 for anticonvulsant activity in ip dosed Kunming mouse", "assay_type": "toxicity, organism-based", "details": "in vivo, read-out: PI"}, "Mus musculus [9]": {"tested_on": "Mus musculus", "test": "Anticonvulsant activity in ip dosed C57BL/6 mouse assessed as protection against maximal electroshock-induced seizures measured at 30 mins interval over 4 hrs by MES test", "assay_type": "functional", "details": "C57B/6, ip"}, "[10]": {"test": "Protective index, ratio of TD50 for neurotoxicity in ip dosed C57BL/6 mouse to ED50 for anticonvulsant activity in ip dosed C57BL/6 mouse", "assay_type": "toxicity, organism-based, C57B/6", "details": "in vivo"}, "Mus musculus [11]": {"tested_on": "Mus musculus", "test": "Anticonvulsant activity in ip dosed Kunming mouse assessed as protection against maximal electroshock-induced seizures […]", "assay_type": "functional"}, "Mus musculus [12]": {"tested_on": "Mus musculus", "test": "Anticonvulsant activity in ip dosed C57BL/6 mouse assessed as protection against maximal electroshock-induced seizures measured at 5 secs intervals over 4 hrs by MES test", "assay_type": "functional", "details": "C57B/6, ip"}, "[13]": {"test": "Protective index, ratio of TD50 for neurotoxicity in ip dosed Swiss mouse by rotarod test to ED50 for anticonvulsant activity in ip dosed Swiss mouse by MES test", "assay_type": "toxicity, organism-based", "details": "in vivo, read-out: Ratio TD50/ED50"}, "Mus musculus [14]": {"tested_on": "Mus musculus", "test": "Anticonvulsant activity in ip dosed Swiss mouse assessed as protection against maximal electroshock-induced seizures administered 30 mins prior to electrical stimulation by MES test", "assay_type": "functional"}, "[15]": {"test": "Neurotoxicity in ip dosed C57BL/6 mouse after 30 mins by rotarod test", "assay_type": "toxicity, organism-based, C57B/6", "details": "in vivo"}, "Mus musculus [16]": {"tested_on": "Mus musculus", "test": "Anticonvulsant activity in albino Swiss mouse assessed as protection against PTZ-induced seizures at 100 mg/kg, ip administered 2 hrs prior to PTZ injection measured after 60 mins", "assay_type": "functional"}, "Mus musculus [17]": {"tested_on": "Mus musculus", "test": "Anticonvulsant activity in BALB/c mouse assessed as protection against maximal electroshock-induced seizures at 30 mg/kg, po after 1 hr by MES test", "assay_type": "functional"}, "[18]": {"test": "Neurotoxicity in ip dosed Kunming mouse after 15 mins by rotarod test", "assay_type": "toxicity, organism-based", "details": "in vivo"}, "Mus musculus [19]": {"tested_on": "Mus musculus", "test": "Anticonvulsant activity in NMRI mouse assessed as protection against PTZ-induced seizures at 100 mg/kg, ip administered 30 mins prior to PTZ injection measured for 30 mins", "assay_type": "functional"}, "Mus musculus [20]": {"tested_on": "Mus musculus", "test": "Anticonvulsant activity in NMRI mouse assessed as protection against maximal electroshock-induced seizures at 100 mg/kg, ip by MES test", "assay_type": "functional"}, "Mus musculus [21]": {"tested_on": "Mus musculus", "test": "Anticonvulsant activity in ip dosed Swiss mouse assessed as protection against strychnine-induced tonic extensor after 30 mins", "assay_type": "functional", "details": "0.5 h"}},
  "data": [
    {"compound": "CCn1c(S)nnc1-c1sc(-c2ccccc2)nc1C", "values": [
      {"measurement": "Activity", "setting": "Mus musculus [1]", "result": 80, "unit": "%"}
    ]},
    {"compound": "Fc1ccc(-n2c(-c3cccc(Cl)c3)n[nH]c2=S)cc1", "values": [
      {"measurement": "selectivity ratio", "setting": "[2]", "result": 3.9}
    ]},
    {"compound": "O=C1c2ccccc2OCC1n1cncn1", "note": "(stereo unspecified)", "values": [
      {"measurement": "inhibition in vivo at 10 mg/kg", "setting": "Mus musculus [3]", "result": 49, "unit": "%"}
    ]},
    {"compound": "Cn1c(-c2ccccc2)nnc1S(C)(=O)=O", "values": [
      {"measurement": "ED50", "setting": "Mus musculus [4]", "result": 7.3, "unit": "mg/kg"},
      {"measurement": "ED50", "setting": "Mus musculus [5]", "result": 55, "unit": "mg/kg"}
    ]},
    {"compound": "Nc1nnc(-c2ccc(Cl)cc2Oc2ccccc2F)[nH]1", "values": [
      {"measurement": "ED50", "setting": "Mus musculus [6]", "result": 1.4, "unit": "mg/kg"}
    ]},
    {"compound": "CCCCCCCOc1nncn1-c1ccc(OCCCCCC)cc1", "values": [
      {"measurement": "ED50", "setting": "Mus musculus [7]", "result": 37.3, "unit": "mg/kg"},
      {"measurement": "selectivity ratio", "setting": "[8]", "result": 11.3}
    ]},
    {"compound": "Nc1nnc(-c2ccc(Cl)cc2Oc2ccccc2Cl)[nH]1", "values": [
      {"measurement": "ED50", "setting": "Mus musculus [6]", "result": 12, "unit": "mg/kg"}
    ]},
    {"compound": "CCCCCCOc1ccc2c(c1)c(-c1ccccc1)cc1nncn12", "values": [
      {"measurement": "ED50", "setting": "Mus musculus [9]", "result": 6.5, "unit": "mg/kg"},
      {"measurement": "selectivity ratio", "setting": "[10]; read-out: PI", "result": 35.1}
    ]},
    {"compound": "Clc1ccc(C2=Nn3cnnc3SC2)cc1", "values": [
      {"measurement": "ED50", "setting": "Mus musculus [11]", "result": 40.9, "unit": "mg/kg"},
      {"measurement": "selectivity ratio", "setting": "[8]", "result": 6.5}
    ]},
    {"compound": "Fc1cccc(C2Cc3nncn3-c3ccccc32)c1", "note": "(stereo unspecified)", "values": [
      {"measurement": "ED50", "setting": "Mus musculus [9]", "result": 27.4, "unit": "mg/kg"},
      {"measurement": "selectivity ratio", "setting": "[10]; read-out: PI", "result": 3.33},
      {"measurement": "ED50", "setting": "Mus musculus [12]", "result": 22, "unit": "mg/kg"}
    ]},
    {"compound": "CCCCCCCOc1nn2cnnc2c2ccccc12", "values": [
      {"measurement": "selectivity ratio", "setting": "[13]", "result": 8},
      {"measurement": "ED50", "setting": "Mus musculus [14]", "result": 11, "unit": "mg/kg"}
    ]},
    {"compound": "Clc1ccc(Oc2nn3cnnc3c3ccccc23)cc1", "values": [
      {"measurement": "selectivity ratio", "setting": "[13]", "result": 5.2},
      {"measurement": "ED50", "setting": "Mus musculus [14]", "result": 7.1, "unit": "mg/kg"}
    ]},
    {"compound": "Clc1ccc(-c2nn3cnnc3s2)cc1", "values": [
      {"measurement": "ED50", "setting": "Mus musculus [11]", "result": 23.7, "unit": "mg/kg"},
      {"measurement": "selectivity ratio", "setting": "[8]", "result": 10.8}
    ]},
    {"compound": "CCCCCCCOc1cc(-c2ccccc2)nc2ncnn12", "values": [
      {"measurement": "ED50", "setting": "Mus musculus [11]", "result": 84.9, "unit": "mg/kg"}
    ]},
    {"compound": "CCCCCCCOc1ccc2c(c1)CCc1nn(C(=O)CC)c(=O)n1-2", "values": [
      {"measurement": "ED50", "setting": "Mus musculus [9]", "result": 8.2, "unit": "mg/kg"},
      {"measurement": "TD50 at 0.5 h", "setting": "[15]", "result": 318, "unit": "mg/kg"},
      {"measurement": "selectivity ratio", "setting": "[10]; read-out: Ratio TD50/ED50", "result": 39}
    ]},
    {"compound": "CC1=NNC(=O)/C1=N\\Nc1ccc(-c2n[nH]c(=O)n2-c2ccccc2)cc1", "values": [
      {"measurement": "Activity", "setting": "Mus musculus [16]", "result": 30, "unit": "%"}
    ]},
    {"compound": "CC1=NNC(=O)/C1=N\\Nc1ccc(-c2n[nH]c(=S)n2-c2ccccc2)cc1", "values": [
      {"measurement": "Activity", "setting": "Mus musculus [16]", "result": 30, "unit": "%"}
    ]},
    {"compound": "Cn1c(SCc2ccccc2)nnc1-c1ccc(N)cc1", "values": [
      {"measurement": "Activity", "setting": "Mus musculus [17]", "result": 50, "unit": "%"}
    ]},
    {"compound": "Fc1ccccc1COc1ccc2c(c1)SCc1nncn1-2", "values": [
      {"measurement": "TD50 at 0.25 h", "setting": "[18]", "result": 244, "unit": "mg/kg"},
      {"measurement": "ED50", "setting": "Mus musculus [7]", "result": 17, "unit": "mg/kg"}
    ]},
    {"compound": "Clc1ccc(-c2nc(Cn3cncn3)cs2)cc1", "values": [
      {"measurement": "Activity", "setting": "Mus musculus [19]", "result": 100, "unit": "%"},
      {"measurement": "Activity", "setting": "Mus musculus [20]", "result": 100, "unit": "%"}
    ]},
    {"compound": "Cc1nn2c(C(N)=O)nnc2cc1Cc1c(Cl)cccc1Cl", "values": [
      {"measurement": "ED50", "setting": "Mus musculus [21]", "result": 62.9, "unit": "mg/kg"},
      {"measurement": "ED50", "setting": "Mus musculus [5]", "result": 91.1, "unit": "mg/kg"},
      {"measurement": "ED50", "setting": "Mus musculus [14]", "result": 12.5, "unit": "mg/kg"}
    ]}
  ]
}
